Columns and labels:
Type in all cases: in vivo
[1] = system: Soy transgenic plants expressing CYP14; test: Field trial icafolin injury rating, CYP14 soybean; details: for Percent Plant Injury (21 DAT): averaged across repetitions, field locations and events
Experimental: (§1) Soy transgenic plants expressing CYP14 or CYP15 were assayed in small scale field trails across nine sites in the United States for tolerance to icafolin spray applications. The plants were grown in field plots and sprayed during the early vegetative stages when plants were roughly at the V3 stage. The icafolin formulation was sprayed at either a 5 g ai/ha or 25 g ai/ha application rate with 2 treatment replications per location. The plants were rated for herbicide injury at 7, 14, 21, and 28 days after treatment (DAT). A total of 12 events for CYP14 and 11 events for CYP15 were tested. An event transformed with a non-herbicide tolerance construct served as a negative control to provide a comparison for injury.

[2] = system: transgenic soybean plants expressing CYP34; test: Icafolin herbicide injury rating, greenhouse spray, CYP34 soybean; details: Table 10
Excerpt: The codon-optimized gene was placed into plant transformation cassette with the CYP34 coding sequence operably linked to a constitutive expression element comprising the promoter, leader, and intron of Arabidopsis thaliana Ubiquitin 3 (SEQ ID NO:14) and a Medicago truncatula photosystem II terminator (SEQ ID NO:15). A plant transformation vector was created, comprising the CYP34 gene cassette and an aadA selectable marker expression cassette, which confers resistance to the antibiotics spectinomycin and streptomycin. Soybean cultivar AG3555 seed-derived embryo explants were transformed with the vector described above by Agrobacterium-mediated transformation using known methods in the art, and positive-transformed plantlets were selected based on growth in the presence of spectinomycin. Plantlets comprising single copy events were grown in the greenhouse to produce R1 seeds. R1 plants were subsequently selected for the homozygous CYP positive plants, either by molecular analysis of young leaf tissue or by seed chipping prior to planting. These selected plants were then screened for tolerance to the icafolin herbicide.
Herbicide tolerance screening was performed by selecting R1 plants at roughly the V2-V3 developmental stage and applying the icafolin herbicide in a track sprayer under standard greenhouse conditions. Two independent transgenic events per transgene were selected for screening. The herbicide was formulated with 1% v/v methylated seed oil (MSO) and 2.5% v/v ammonium sulfate (AMS) and sprayed with a XR nozzle at 15 gallons per […] (GPA) to mimic field conditions. The icafolin formulation was sprayed at two rates: 5 g active ingredient (ai)/hectare (ha) and 25 g ai/ha. The treated soybean plants were returned to the greenhouse following spray application and allowed to grow under standard conditions. The plants were rated for herbicide injury at approximately 13 and 21 days after treatment (DAT). Untreated transgenic plants and control (wild-type) plants were used for phenotypic comparison. The herbicide injury rating accounts for plant malformation, stunting, chlorosis, necrosis, and plant death relative to the untreated control plants. An injury rating of approximately 90% or above indicates nearly complete plant death. An injury rating of less than 30% indicates partial tolerance and an injury rating of less than 20% indicates good tolerance. Injury ratings were collected and analyzed, and photographs of representative plants were taken.

[3] = system: soybean event transformed with a non-herbicide tolerance construct (negative control); test: Field trial icafolin injury rating, negative control soybean; details: averaged across repetitions and field locations
Experimental: as §1

[4] = CYP34 Event 326, 5 g ai/ha icafolin
[5] = CYP34 Event 326, 25 g ai/ha icafolin
[6] = CYP34 Event 356, 5 g ai/ha icafolin
[7] = CYP34 Event 356, 25 g ai/ha icafolin

C=C[C@]1(C(=O)N[C@H]2CO[C@@H](C(=O)OC)C2)CC(c2cc(F)cc(F)c2)=NO1 (relative stereo) [icafolin, methyl(2R*,4R*)-4-[[(5S)-3-(3,5-difluorophenyl)-5-vinyl-4H-isoxazole-5-carbonyl]amino]tetrahydrofuran-2-carboxylate]
Percent Plant Injury (21 DAT) ([1]; 5 g ai/ha icafolin): 11.4% | injury ratings ([1]; 5 g ai/ha, 21 DAT): below 15% | Tolerance to icafolin ([1]; 25 g ai/ha): Incomplete tolerance | Percent Plant Injury (21 DAT) ([1]; 25 g ai/ha icafolin): 41.1% | Percent Injury 13 DAT [2, 4]: 12.5% | Percent injury 21 DAT [2, 4]: 9.2% | Percent Injury 13 DAT [2, 5]: 48.3% | Percent injury 21 DAT [2, 5]: 36.7% | Percent Injury 13 DAT [2, 6]: 13.3% | Percent injury 21 DAT [2, 6]: 12.5% | Percent Injury 13 DAT [2, 7]: 35.8% | Percent injury 21 DAT [2, 7]: 30.8% | Percent Plant Injury (21 DAT) ([3]; 5 g ai/ha icafolin): 18.9% | Percent Plant Injury (21 DAT) ([3]; 25 g ai/ha icafolin): 62.8%

From patent publication US20240415123A1, “METHODS AND COMPOSITIONS FOR ICAFOLIN HERBICIDE TOLERANCE” (Monsanto Technology LLC, priority 2023, published 2024)
